US20220184231A1, “CLOSED-ENDED DNA (CEDNA) AND IMMUNE MODULATING COMPOUNDS” (Generation Bio Co., priority 2019, published 2022)
“Also recorded” adds a separate entry of the source.

Legend:
Assay type in all cases: in vivo
[1] = test system: luciferase transgene expression from ceDNA vector; test: In-life IVIS imaging of luciferase expression from ceDNA vector; settings: male CD-1 mice, LNP-ceDNA 0.5 mg/kg i.v., day 4 and day 7, compared with ceDNA/polyC group
Protocol: A ceDNA vector encoding luciferase as the transgene (e.g., SEQ ID NO: 56), with a wild-type AAV2 left ITR and a mutant right ITR and a hAAT promoter, methylated to eliminate free CpG, was used. The ceDNA vector was prepared as described above. […] Four replicates were included in each sample group. Body weights were recorded on days 0, 1, 2, 3, 7, 14, 21 and 28. In-life imaging was performed on days 4, 7, 14, 21, and 28 using an in vivo imaging system (IVIS). For the imaging, each mouse was injected with luciferin at 150 mg/kg via intraperitoneal injection at 2.5 mL/kg. After 15 minutes, each mouse was anaesthetized and imaged.

IL-6 = test: Cytokine analysis of serum samples after administration: IL-6; settings: male CD-1 mice, LNP-ceDNA 0.5 mg/kg i.v.; relative to ceDNA treatment alone
Source text: (§1) FIGS. 6A, 6B and 6C provide graphs showing data from the experiments described in Example 6.

TNF-alpha = test: Cytokine analysis of serum samples after administration: TNF-alpha; settings: male CD-1 mice, LNP-ceDNA 0.5 mg/kg i.v.; relative to ceDNA treatment alone
Source text: as §1

RANTES = test: Cytokine analysis of serum samples after administration: RANTES; settings: male CD-1 mice, LNP-ceDNA 0.5 mg/kg i.v.; relative to ceDNA treatment alone
Source text: as §1

cytokines = test: Cytokine analysis of serum samples after administration: other cytokines; settings: male CD-1 mice, LNP-ceDNA 0.5 mg/kg i.v.; cytokines other than IL-6, TNF-alpha, RANTES
Source text: as §1

dexamethasone palmitate
total flux (luciferase expression from the ceDNA vector) [1]: no impact
induction of IL-6 (serum level) (IL-6): significantly less induction; also recorded: significantly reduced
induction of TNF-alpha (serum level) (TNF-alpha): significantly less induction; also recorded: significantly reduced
induction of RANTES (serum level) (RANTES): significantly less induction; also recorded: significantly reduced
levels of other cytokines (serum) (cytokines): not impacting
